Assay results reported in PubChem BioAssay AID2060485 (Molecular Pharmacology Branch, DTP, NCI, 2025).

Tested on: A375 multi-cell spheroids with HUVEC/MSC, viability
Experiment: Anticancer human tumor A375 cell line growth inhibition [GQUAD];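 further: spheroids exposed to compounds for seven days before readout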
Conditions: for IC50: curve of first compound; for viability, T/C: stronger effect = lower value
How it was run: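 Viability of tumor cells grown as complex spheroids with endothelial and stromal cells, exposed to drug combinations. Top concentration at or near clinical Cmax (else 10 microM), diluted in half-log increments.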

[1] = second compound 0.0316 µM, first compound 0.0316 µM
[2] = second compound 0.0316 µM, first compound 0.1 µM
[3] = second compound 0.0316 µM, first compound 0.316 µM
[4] = second compound 0.0316 µM, first compound 1 µM
[5] = second compound 0.0316 µM, first compound 3.16 µM
[6] = second compound 0.0316 µM, first compound 10 µM
[7] = second compound 0.1 µM, first compound 0.0316 µM
[8] = second compound 0.1 µM, first compound 0.1 µM
[9] = second compound 0.1 µM, first compound 0.316 µM
[10] = second compound 0.1 µM, first compound 1 µM
[11] = second compound 0.1 µM, first compound 3.16 µM
[12] = second compound 0.1 µM, first compound 10 µM
[13] = second compound 0.316 µM, first compound 0.0316 µM
[14] = second compound 0.316 µM, first compound 0.1 µM
[15] = second compound 0.316 µM, first compound 0.316 µM
[16] = second compound 0.316 µM, first compound 1 µM
[17] = second compound 0.316 µM, first compound 3.16 µM
[18] = second compound 0.316 µM, first compound 10 µM
[19] = second compound 1 µM, first compound 0.0316 µM
[20] = second compound 1 µM, first compound 0.1 µM
[21] = second compound 1 µM, first compound 0.316 µM
[22] = second compound 1 µM, first compound 1 µM
[23] = second compound 1 µM, first compound 3.16 µM
[24] = second compound 1 µM, first compound 10 µM
[25] = second compound 3.16 µM, first compound 0.0316 µM
[26] = second compound 3.16 µM, first compound 0.1 µM
[27] = second compound 3.16 µM, first compound 0.316 µM
[28] = second compound 3.16 µM, first compound 1 µM
[29] = second compound 3.16 µM, first compound 3.16 µM
[30] = second compound 3.16 µM, first compound 10 µM
[31] = second compound 10 µM, first compound 0.0316 µM
[32] = second compound 10 µM, first compound 0.1 µM
[33] = second compound 10 µM, first compound 0.316 µM
[34] = second compound 10 µM, first compound 1 µM
[35] = second compound 10 µM, first compound 3.16 µM
[36] = second compound 10 µM, first compound 10 µM

SMILES: C=CCn1c(=O)c2cnc(Nc3ccc(N4CCN(C)CC4)cc3)nc2n1-c1cccc(C(C)(C)O)n1 + Cc1cnc(CNC(=O)c2c(=O)c3ccc(N4CCCN(C)CC4)nc3n3c2sc2ccccc23)cn1
- IC50 (second compound 0.0316 µM): 900 nM
- IC50 (second compound 0.1 µM): 408 nM
- IC50 (second compound 0.316 µM): 96.7 nM
- IC50 (second compound 1 µM): < 31.6 nM
- IC50 (second compound 3.16 µM): < 31.6 nM
- IC50 (second compound 10 µM): < 31.6 nM
- viability, T/C [1]: 93.1%
- viability, T/C [2]: 95.3%
- viability, T/C [3]: 81%
- viability, T/C [4]: 48.3%
- viability, T/C [5]: 12.3%
- viability, T/C [6]: 9.5%
- viability, T/C [7]: 70.2%
- viability, T/C [8]: 69.7%
- viability, T/C [9]: 50.6%
- viability, T/C [10]: 38%
- viability, T/C [11]: 15.1%
- viability, T/C [12]: 9.57%
- viability, T/C [13]: 57.6%
- viability, T/C [14]: 50.6%
- viability, T/C [15]: 36.7%
- viability, T/C [16]: 28.1%
- viability, T/C [17]: 14.9%
- viability, T/C [18]: 10.7%
- viability, T/C [19]: 37.1%
- viability, T/C [20]: 33.7%
- viability, T/C [21]: 31.6%
- viability, T/C [22]: 25.3%
- viability, T/C [23]: 16.1%
- viability, T/C [24]: 11.4%
- viability, T/C [25]: 32%
- viability, T/C [26]: 33.6%
- viability, T/C [27]: 27.2%
- viability, T/C [28]: 25.7%
- viability, T/C [29]: 17%
- viability, T/C [30]: 12%
- viability, T/C [31]: 28.8%
- viability, T/C [32]: 28.9%
- viability, T/C [33]: 26.8%
- viability, T/C [34]: 21.6%
- viability, T/C [35]: 16.8%
- viability, T/C [36]: 13.8%

SMILES: Nc1ccn(C2OC(CO)C(O)C2(F)F)c(=O)n1 (centres undefined) + Cc1cnc(CNC(=O)c2c(=O)c3ccc(N4CCCN(C)CC4)nc3n3c2sc2ccccc23)cn1
- IC50 (second compound 0.0316 µM): < 31.6 nM
- IC50 (second compound 0.1 µM): < 31.6 nM
- IC50 (second compound 0.316 µM): < 31.6 nM
- IC50 (second compound 1 µM): < 31.6 nM
- IC50 (second compound 3.16 µM): < 31.6 nM
- IC50 (second compound 10 µM): < 31.6 nM
- viability, T/C [1]: 22.9%
- viability, T/C [2]: 10.1%
- viability, T/C [3]: 10.4%
- viability, T/C [4]: 10.4%
- viability, T/C [5]: 8.9%
- viability, T/C [6]: 7.49%
- viability, T/C [7]: 23.4%
- viability, T/C [8]: 10.8%
- viability, T/C [9]: 9.94%
- viability, T/C [10]: 10.3%
- viability, T/C [11]: 9.17%
- viability, T/C [12]: 7.13%
- viability, T/C [13]: 22.3%
- viability, T/C [14]: 12.7%
- viability, T/C [15]: 9.56%
- viability, T/C [16]: 11.4%
- viability, T/C [17]: 10%
- viability, T/C [18]: 7.6%
- viability, T/C [19]: 28.3%
- viability, T/C [20]: 14.9%
- viability, T/C [21]: 13.3%
- viability, T/C [22]: 13.8%
- viability, T/C [23]: 12.5%
- viability, T/C [24]: 7.97%
- viability, T/C [25]: 29%
- viability, T/C [26]: 20.9%
- viability, T/C [27]: 18.9%
- viability, T/C [28]: 14.1%
- viability, T/C [29]: 11.8%
- viability, T/C [30]: 6.29%
- viability, T/C [31]: 24.9%
- viability, T/C [32]: 22.1%
- viability, T/C [33]: 19.1%
- viability, T/C [34]: 14.6%
- viability, T/C [35]: 10.9%
- viability, T/C [36]: 2.89%
